Values after ≈ are worked out from the molar mass of the structure shown.
Columns and labels:
Candida albicans [1] = assay: Antifungal activity against Candida albicans MY1055 infected in DBA mouse model assessed as log change in colony forming units in kidney at 12.5 mg/kg, po bid for 2 days and measured after 4 days by TOKA; format: functional; conditions: time 2 day
[2] = Inhibition of beta-1,3-glucan synthase in Candida albicans MY1055 microsomal membrane using UDP-[3H]-glucose as substrate incubated for 2 hrs in presence of UTP by radioactivity-based assay; format: cell membranes
Candida albicans [3] = assay: Antifungal activity against Candida albicans MY1055 infected in DBA/2 mouse model assessed as log change in colony forming units in kidney at 6.5 mg/kg, po bid for 2 days and measured after 4 days by TOKA; format: functional; conditions: time 2 day
Aspergillus fumigatus = assay: Antifungal activity against Aspergillus fumigatus MF5668 assessed as fungal growth inhibition measured after 24 hrs by liquid microdilution method; format: functional; conditions: read-out: MEC
[4] = Oral bioavailability in mouse; format: ADME, organism-based; conditions: in vivo
Candida albicans [5] = assay: Antifungal activity against Candida albicans MY1055 assessed as fungal growth inhibition measured after 24 hrs in presence of mouse serum by liquid microdilution method; format: functional
Candida albicans [6] = assay: Antifungal activity against Candida albicans MY1055 assessed as fungal growth inhibition measured after 24 hrs by liquid microdilution method; format: functional
Candida albicans [7] = assay: Antifungal activity against Candida albicans MY1055 infected in DBA/2 mouse model assessed as log change in colony forming units in kidney at 25 mg/kg, po bid for 2 days and measured after 4 days by TOKA; format: functional; conditions: time 2 day

Structure (SMILES)	Activity (Candida albicans [1]) [log CFU]	IC50 [2] [µg/mL]	Activity (Candida albicans [3]) [log CFU]	minimal effective concentration (Aspergillus fumigatus) [µg/mL]	bioavailability [4] [%]	MIC (Candida albicans [5]) [µg/mL]	MIC (Candida albicans [6]) [µg/mL]	Activity (Candida albicans [7]) [log CFU]
CCCN[C@@](C)(CO[C@H]1[C@H](n2ncnc2C(N)=O)C[C@@]23COC[C@@]1(C)[C@@H]2CC[C@H]1C3=CC[C@@]2(C)[C@H](C(=O)O)[C@@](C)([C@H](C)C(C)C)CC[C@]12C)C(C)C	-0.8	0.015	-0.7	< 0.03	19	32	0.5 (≈ 0.691 µM)	-1.9
CC(C)[C@@H](C)[C@@]1(C)CC[C@]2(C)[C@H]3CC[C@@H]4[C@@]5(COC[C@]4(C)[C@@H](OCC4(N)CCCCC4)[C@H](n4ncnc4C(N)=O)C5)C3=CC[C@@]2(C)[C@@H]1C(=O)O	-1.8	0.01	-0.5	< 0.03	–	16	0.06 (≈ 0.0865 µM)	-1.8
CC(C)[C@@H](C)[C@@]1(C)CC[C@]2(C)[C@H]3CC[C@@H]4[C@@]5(COC[C@]4(C)[C@@H](OC[C@](C)(N)C(C)C)[C@H](n4cnnc4C#N)C5)C3=CC[C@@]2(C)[C@@H]1C(=O)O	–	> 1	–	8	–	> 32	16 (≈ 24.1 µM)	–
CC(C)[C@@H](C)[C@@]1(C)CC[C@]2(C)[C@H]3CC[C@@H]4[C@@]5(COC[C@]4(C)[C@@H](OC[C@](C)(N)C(C)C)[C@H](n4ncnc4C#N)C5)C3=CC[C@@]2(C)[C@@H]1C(=O)O	0	0.006	-0.9	< 0.03	–	8	0.125 (≈ 0.188 µM)	-1.1
CCCNC(=O)c1ncnn1[C@@H]1C[C@@]23COC[C@@](C)([C@@H]2CC[C@H]2C3=CC[C@@]3(C)[C@H](C(=O)O)[C@@](C)([C@H](C)C(C)C)CC[C@]23C)[C@H]1OC[C@](C)(N)C(C)C	-1.6	0.007	-1.1	< 0.03	33	16	0.5 (≈ 0.691 µM)	-2.2
CC(C)[C@@H](C)[C@@]1(C)CC[C@]2(C)[C@H]3CC[C@@H]4[C@@]5(COC[C@]4(C)[C@@H](OC[C@](C)(N)C(C)C)[C@H](n4cnnc4Cl)C5)C3=CC[C@@]2(C)[C@@H]1C(=O)O	–	> 1	–	16	–	> 32	32 (≈ 47.5 µM)	–
CC(C)[C@@H](C)[C@@]1(C)CC[C@]2(C)[C@H]3CC[C@@H]4[C@@]5(COC[C@]4(C)[C@@H](OC[C@](C)(N)C(C)C)[C@H](n4ncnc4C(=O)N(C)C)C5)C3=CC[C@@]2(C)[C@@H]1C(=O)O	-1.3	0.009	-1	< 0.03	16	8	0.25 (≈ 0.352 µM)	-2.4
CC(C)[C@@H](C)[C@@]1(C)CC[C@]2(C)[C@H]3CC[C@@H]4[C@@]5(COC[C@]4(C)[C@@H](OC[C@](C)(N)C(C)C)[C@H](n4cnc(C#N)n4)C5)C3=CC[C@@]2(C)[C@@H]1C(=O)O	–	0.334	–	4	–	> 32	8 (≈ 12 µM)	–
CCN[C@@](C)(CO[C@H]1[C@H](n2ncnc2C(N)=O)C[C@@]23COC[C@@]1(C)[C@@H]2CC[C@H]1C3=CC[C@@]2(C)[C@H](C(=O)O)[C@@](C)([C@H](C)C(C)C)CC[C@]12C)C(C)C	-1.1	0.011	-1.1	< 0.03	17	16	0.25 (≈ 0.352 µM)	-1.8
CNC(=O)c1ncnn1[C@@H]1C[C@@]23COC[C@@](C)([C@@H]2CC[C@H]2C3=CC[C@@]3(C)[C@H](C(=O)O)[C@@](C)([C@H](C)C(C)C)CC[C@]23C)[C@H]1OC[C@](C)(N)C(C)C	-1.6	0.004	-0.6	< 0.03	5	8	0.125 (≈ 0.18 µM)	-2.6
CC(C)[C@@H](C)[C@@]1(C)CC[C@]2(C)[C@H]3CC[C@@H]4[C@@]5(COC[C@]4(C)[C@@H](OCC4(N)CCOCC4)[C@H](n4ncnc4C(N)=O)C5)C3=CC[C@@]2(C)[C@@H]1C(=O)O	–	0.008	–	< 0.03	–	2	0.125 (≈ 0.18 µM)	–
CN[C@@](C)(CO[C@H]1[C@H](n2ncnc2C(N)=O)C[C@@]23COC[C@@]1(C)[C@@H]2CC[C@H]1C3=CC[C@@]2(C)[C@H](C(=O)O)[C@@](C)([C@H](C)C(C)C)CC[C@]12C)C(C)C	-0.5	0.005	-0.4	< 0.03	5	8	0.25 (≈ 0.359 µM)	-1.2
CCSc1ncnn1[C@@H]1C[C@@]23COC[C@@](C)([C@@H]2CC[C@H]2C3=CC[C@@]3(C)[C@H](C(=O)O)[C@@](C)([C@H](C)C(C)C)CC[C@]23C)[C@H]1OC[C@](C)(N)C(C)C	–	0.009	–	< 0.03	–	32	0.5 (≈ 0.715 µM)	–
CC(C)[C@@H](C)[C@@]1(C)CC[C@]2(C)[C@H]3CC[C@@H]4[C@@]5(COC[C@]4(C)[C@@H](OC[C@](C)(N)C(C)C)[C@H](n4ncnc4N)C5)C3=CC[C@@]2(C)[C@@H]1C(=O)O	–	0.01	–	0.125	–	16	0.25 (≈ 0.382 µM)	–
COC(=O)c1ncnn1[C@@H]1C[C@@]23COC[C@@](C)([C@@H]2CC[C@H]2C3=CC[C@@]3(C)[C@H](C(=O)O)[C@@](C)([C@H](C)C(C)C)CC[C@]23C)[C@H]1OC[C@](C)(N)C(C)C	–	0.004	–	0.125	–	32	1 (≈ 1.43 µM)	–
CC(C)[C@@H](C)[C@@]1(C)CC[C@]2(C)[C@H]3CC[C@@H]4[C@@]5(COC[C@]4(C)[C@@H](OC[C@](C)(N)C(C)C)[C@H](n4cnc(Cl)n4)C5)C3=CC[C@@]2(C)[C@@H]1C(=O)O	–	0.019	–	0.25	–	> 32	8 (≈ 11.9 µM)	–
CC(C)[C@@H](C)[C@@]1(C)CC[C@]2(C)[C@H]3CC[C@@H]4[C@@]5(COC[C@]4(C)[C@@H](OC[C@](C)(N)C(C)C)[C@H](n4ncnc4I)C5)C3=CC[C@@]2(C)[C@@H]1C(=O)O	–	0.005	–	< 0.03	–	16	0.5 (≈ 0.654 µM)	–
CCS(=O)(=O)c1ncnn1[C@@H]1C[C@@]23COC[C@@](C)([C@@H]2CC[C@H]2C3=CC[C@@]3(C)[C@H](C(=O)O)[C@@](C)([C@H](C)C(C)C)CC[C@]23C)[C@H]1OC[C@](C)(N)C(C)C	–	0.005	–	< 0.03	–	8	1 (≈ 1.37 µM)	–
CC(C)[C@@H](C)[C@@]1(C)CC[C@]2(C)[C@H]3CC[C@@H]4[C@@]5(COC[C@]4(C)[C@@H](OC[C@](C)(N)C(C)C)[C@H](n4cncn4)C5)C3=CC[C@@]2(C)[C@@H]1C(=O)O	–	0.007	–	< 0.03	–	4	0.25 (≈ 0.391 µM)	–
CC(C)[C@@H](C)[C@@]1(C)CC[C@]2(C)[C@H]3CC[C@@H]4[C@@]5(COC[C@]4(C)[C@@H](OC[C@](C)(N)C(C)C)[C@H](n4ncnc4S(N)(=O)=O)C5)C3=CC[C@@]2(C)[C@@H]1C(=O)O	-0.8	0.006	-0.8	< 0.03	–	8	0.25 (≈ 0.348 µM)	-0.7

— ChEMBL document CHEMBL4725308, “MK-5204: An orally active β-1,3-glucan synthesis inhibitor” (Bioorg Med Chem Lett, 2020)
